From ChEMBL document CHEMBL1131172 (J Med Chem, 1998)
pIC50: −log10 of the molar value.

Legend:
SR [1] = assay: Inhibition of the growth of leukemia(SR) cell line at 0.01 uM; format: functional; conditions: Homo sapiens
NCI-H522 [2] = assay: Inhibition of the growth of non-small-cell lung cancer (NCI-H522) cell line; format: functional; conditions: Homo sapiens
HCT-15 [3] = assay: inhibition of the growth of colon cancer(HCT-15) cell line; format: functional; conditions: Homo sapiens
UO-31 [4] = assay: inhibition of the growth of renal cancer(UO-31) cell line; format: functional; conditions: Homo sapiens
NCI-H522 [5] = assay: Inhibition of the growth of non-small-cell lung cancer (NCI-H522) cell line at 0.01 uM; format: functional; conditions: Homo sapiens
786-0 [6] = assay: inhibition of the growth of renal cancer(786-0) cell line; format: functional; conditions: Homo sapiens
SF-268 [7] = assay: Inhibition of the growth of CNS cancer(SF-268) cell line at 0.01 uM; format: functional; conditions: Homo sapiens
CAKI-1 [8] = assay: inhibition of the growth of renal cancer(CAKI-1) cell line; format: functional; conditions: Homo sapiens
SF-268 [9] = assay: inhibition of the growth of CNS cancer(SF-268) cell line; format: functional; conditions: Homo sapiens
MDA-MB-435 [10] = assay: Inhibition of the growth of breast cancer (MDA-MB-435) cell line at 0.01 uM; format: functional; conditions: Homo sapiens
KM12 [11] = assay: inhibition of the growth of colon cancer(KM-12) cell line; format: functional; conditions: Homo sapiens
SNB-19 [12] = assay: inhibition of the growth of CNS cancer(SNB-19) cell line; format: functional; conditions: Homo sapiens
SNB-19 [13] = assay: Inhibition of the growth of CNS cancer(SNB-19) cell line at 0.01 uM; format: functional; conditions: Homo sapiens
MOLT-4 [14] = assay: Inhibition of the growth of leukemia (MOLT-4) cell line; format: functional; conditions: Homo sapiens
MCF7 [15] = assay: inhibition of the growth of breast cancer (MCF-7) cell line; format: functional; conditions: Homo sapiens
NCI/ADR-RES [16] = assay: inhibition of the growth of breast cancer (MCF7/ADR-RES) cell line; format: functional; conditions: Homo sapiens
SK-MEL-5 [17] = assay: Inhibition of the growth of melanoma cancer (SK-MEL-5) cell line at 0.01 uM; format: functional; conditions: Homo sapiens
NCI-H322M [18] = assay: inhibition of the growth of non-small-cell lung cancer (NCI-H322M) cell line; format: functional; conditions: Homo sapiens
SK-MEL-5 [19] = assay: inhibition of the growth of melanoma cancer (SK-MEL-5) cell line; format: functional; conditions: Homo sapiens
SF-295 [20] = assay: inhibition of the growth of CNS cancer(SF-295) cell line; format: functional; conditions: Homo sapiens
HCT-116 [21] = assay: Inhibition of the growth of colon cancer(HCT116) cell line; format: functional; conditions: Homo sapiens
MDA-N [22] = assay: Inhibition of the growth of breast cancer(MDA-N) cell line at 0.01 uM; format: functional; conditions: Homo sapiens
[23] = biological target: T1, Bifunctional dihydrofolate reductase-thymidylate synthase (Toxoplasma gondii, UniProt Q07422)
T1 sequence (Q07422 whole entry): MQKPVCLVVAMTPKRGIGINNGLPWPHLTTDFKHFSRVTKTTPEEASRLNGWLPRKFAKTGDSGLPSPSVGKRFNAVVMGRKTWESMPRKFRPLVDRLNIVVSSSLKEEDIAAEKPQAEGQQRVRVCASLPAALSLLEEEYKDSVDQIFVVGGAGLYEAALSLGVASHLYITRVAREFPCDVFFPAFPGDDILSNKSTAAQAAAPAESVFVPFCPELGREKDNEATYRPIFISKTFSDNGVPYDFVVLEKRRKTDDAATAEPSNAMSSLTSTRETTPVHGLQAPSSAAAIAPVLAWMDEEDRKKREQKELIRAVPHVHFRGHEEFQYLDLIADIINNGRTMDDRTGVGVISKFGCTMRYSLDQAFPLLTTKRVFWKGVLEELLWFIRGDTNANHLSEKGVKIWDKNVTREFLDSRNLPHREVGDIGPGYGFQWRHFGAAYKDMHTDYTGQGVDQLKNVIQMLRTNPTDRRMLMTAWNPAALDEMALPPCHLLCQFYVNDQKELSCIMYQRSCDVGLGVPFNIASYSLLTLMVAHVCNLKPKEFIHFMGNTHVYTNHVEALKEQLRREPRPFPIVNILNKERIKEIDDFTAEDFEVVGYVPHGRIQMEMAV
Description: Inhibitory activity against dihydrofolate reductase (DHFR) from Toxoplasma gondii

DU-145 [24] = assay: Inhibition of the growth of prostate cancer(DU-145) cell line at 0.01 uM; format: functional; conditions: Homo sapiens
KM12 [25] = assay: Inhibition of the growth of colon cancer(KM-12) cell line at 0.01 uM; format: functional; conditions: Homo sapiens
SR [26] = assay: Inhibition of the growth of leukemia(SR) cell line; format: functional; conditions: Homo sapiens
NCI-H23 [27] = assay: inhibition of the growth of non-small-cell lung cancer (NCI-H23) cell line; format: functional; conditions: Homo sapiens
M14 [28] = assay: Inhibition of the growth of melanoma cancer (M14) cell line at 0.01 uM; format: functional; conditions: Homo sapiens
HCT-15 [29] = assay: Inhibition of the growth of colon cancer(HCT-15) cell line at 0.01 uM; format: functional; conditions: Homo sapiens
MDA-MB-435 [30] = assay: Inhibition of the growth of breast cancer (MDA-MB-435) cell line; format: functional; conditions: Homo sapiens
RPMI-8226 [31] = assay: Inhibition of the growth of leukemia (RPMI-8226) cell line; format: functional; conditions: Homo sapiens
786-0 [32] = assay: Inhibition of the growth of renal cancer(786-0) cell line at 0.01 uM; format: functional; conditions: Homo sapiens
DU-145 [33] = assay: inhibition of the growth of prostate cancer(DU-145) cell line; format: functional; conditions: Homo sapiens
SF-295 [34] = assay: Inhibition of the growth of CNS cancer(SF-295) cell line at 0.01 uM; format: functional; conditions: Homo sapiens
SF-539 [35] = assay: Inhibition of the growth of CNS cancer(SF-539) cell line at 0.01 uM; format: functional; conditions: Homo sapiens
NCI-H23 [36] = assay: inhibition of the growth of non-small-cell lung cancer (NCI-H23) cell line at 0.01 uM; format: functional; conditions: Homo sapiens
A549 [37] = assay: Inhibition of the growth of non-small-cell lung cancer (A549/ATCC) cell line; format: functional; conditions: Homo sapiens
Dihydrofolate reductase [38] = biological target: T2, Dihydrofolate reductase (Rattus norvegicus, UniProt Q920D2)
T2 sequence (Q920D2 whole entry): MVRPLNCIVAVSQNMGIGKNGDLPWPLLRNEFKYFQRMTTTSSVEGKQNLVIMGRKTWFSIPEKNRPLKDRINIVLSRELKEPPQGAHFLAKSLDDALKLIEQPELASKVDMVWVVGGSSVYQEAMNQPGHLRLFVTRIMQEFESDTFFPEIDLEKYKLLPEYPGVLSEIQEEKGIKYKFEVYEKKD
Description: Inhibitory activity against dihydrofolate reductase (DHFR) from rat liver

CAKI-1 [39] = assay: Inhibition of the growth of renal cancer(CAKI-1) cell line at 0.01 uM; format: functional; conditions: Homo sapiens
RPMI-8226 [40] = assay: Inhibition of the growth of leukemia (RPMI-8226) cell line AT 0.01 uM; format: functional; conditions: Homo sapiens
A549 [41] = assay: Inhibition of the growth of non-small-cell lung cancer (A549/ATCC) cell line at 0.01 uM; format: functional; conditions: Homo sapiens
MCF7 [42] = assay: Inhibition of the growth of breast cancer (MCF-7) cell line at 0.01 uM; format: functional; conditions: Homo sapiens
M14 [43] = assay: inhibition of the growth of melanoma cancer (M14) cell line; format: functional; conditions: Homo sapiens
SF-539 [44] = assay: inhibition of the growth of CNS cancer(SF-539) cell line; format: functional; conditions: Homo sapiens
NCI-H460 [45] = assay: inhibition of the growth of non-small-cell lung cancer (NCI-H460) cell line; format: functional; conditions: Homo sapiens
UO-31 [46] = assay: Inhibition of the growth of renal cancer(UO-31) cell line at 0.01 uM; format: functional; conditions: Homo sapiens
NCI-H322M [47] = assay: Inhibition of the growth of non-small-cell lung cancer (NCI-H322M) cell line at 0.01 uM; format: functional; conditions: Homo sapiens
OVCAR-8 [48] = assay: Inhibition of the growth of ovarian cancer(OVCAR-8) cell line at 0.01 uM; format: functional; conditions: Homo sapiens
OVCAR-8 [49] = assay: inhibition of the growth of ovarian cancer(OVCAR-8) cell line; format: functional; conditions: Homo sapiens
NCI-H460 [50] = assay: Inhibition of the growth of non-small-cell lung cancer (NCI-H460) cell line at 0.01 uM; format: functional; conditions: Homo sapiens
MOLT-4 [51] = assay: Inhibition of the growth of leukemia (MOLT-4) cell line at 0.01 uM; format: functional; conditions: Homo sapiens
MDA-N [52] = assay: inhibition of the growth of breast cancer(MDA-N) cell line; format: functional; conditions: Homo sapiens
HCT-116 [53] = assay: Inhibition of the growth of colon cancer(HCT116) cell line at 0.01 uM; format: functional; conditions: Homo sapiens
IGROV-1 [54] = assay: inhibition of the growth of ovarian cancer(IGROVI) cell line; format: functional; conditions: Homo sapiens
NCI/ADR-RES [55] = assay: Inhibition of the growth of breast cancer (MCF7/ADR-RES) cell line at 0.01 uM; format: functional; conditions: Homo sapiens
IGROV-1 [56] = assay: Inhibition of the growth of ovarian cancer(IGROVI) cell line at 0.01 uM; format: functional; conditions: Homo sapiens
Dihydrofolate reductase [57] = biological target: T3, Dihydrofolate reductase (Pneumocystis carinii, UniProt P16184)
T3 sequence (P16184 whole entry): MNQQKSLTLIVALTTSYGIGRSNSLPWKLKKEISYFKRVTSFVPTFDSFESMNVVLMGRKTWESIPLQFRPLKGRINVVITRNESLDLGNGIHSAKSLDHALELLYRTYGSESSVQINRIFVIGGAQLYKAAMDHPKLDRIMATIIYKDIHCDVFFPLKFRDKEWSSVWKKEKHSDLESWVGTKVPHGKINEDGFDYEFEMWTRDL
Description: Inhibitory activity against dihydrofolate reductase (DHFR) from Pneumocystis carinii

`COc1ccc(N(C)c2ccc3nc(N)nc(N)c3n2)cc1OC` gave an inhibition at 0.01 µM (SR [1]) of 69%, a GI50 (NCI-H522 [2]) of under 0.01 µM and a GI50 (HCT-15 [3]) of under 0.01 µM. The GI50 (UO-31 [4]) was under 0.01 µM, the inhibition at 0.01 µM (NCI-H522 [5]) was 59% and the GI50 (786-0 [6]) was under 0.01 µM. It also gave an inhibition at 0.01 µM (SF-268 [7]) of 52%, a GI50 (CAKI-1 [8]) of under 0.01 µM and a GI50 (SF-268 [9]) of under 0.01 µM. The inhibition at 0.01 µM (MDA-MB-435 [10]) was 72%, the GI50 (KM12 [11]) was under 0.01 µM and the GI50 (SNB-19 [12]) was under 0.01 µM. For the same compound, the inhibition at 0.01 µM (SNB-19 [13]) was 90%, the GI50 (MOLT-4 [14]) was under 0.01 µM and the GI50 (MCF7 [15]) was under 0.01 µM. For the same compound, the GI50 (NCI/ADR-RES [16]) was under 0.01 µM, the inhibition at 0.01 µM (SK-MEL-5 [17]) was 83% and the GI50 (NCI-H322M [18]) was under 0.01 µM. It also gave a GI50 (SK-MEL-5 [19]) of under 0.01 µM, a GI50 (SF-295 [20]) of under 0.01 µM and a GI50 (HCT-116 [21]) of under 0.01 µM. It also gave an inhibition at 0.01 µM (MDA-N [22]) of 63%, a pIC50 [23] of 9.06 and an inhibition at 0.01 µM (DU-145 [24]) of 57%. It also gave an inhibition at 0.01 µM (KM12 [25]) of 56%, a GI50 (SR [26]) of under 0.01 µM and a GI50 (NCI-H23 [27]) of under 0.01 µM. The inhibition at 0.01 µM (M14 [28]) was 59%, the inhibition at 0.01 µM (HCT-15 [29]) was 75% and the GI50 (MDA-MB-435 [30]) was under 0.01 µM. The GI50 (RPMI-8226 [31]) was under 0.01 µM, the inhibition at 0.01 µM (786-0 [32]) was 53% and the GI50 (DU-145 [33]) was under 0.01 µM. It also gave an inhibition at 0.01 µM (SF-295 [34]) of 68%, an inhibition at 0.01 µM (SF-539 [35]) of 67% and an inhibition at 0.01 µM (NCI-H23 [36]) of 82%. For the same compound, the GI50 (A549 [37]) was under 0.01 µM, the pIC50 (Dihydrofolate reductase [38]) was 9.40 and the inhibition at 0.01 µM (CAKI-1 [39]) was 81%. For the same compound, the inhibition at 0.01 µM (RPMI-8226 [40]) was 69%, the inhibition at 0.01 µM (A549 [41]) was 70% and the inhibition at 0.01 µM (MCF7 [42]) was 60%. The GI50 (M14 [43]) was under 0.01 µM, the GI50 (SF-539 [44]) was under 0.01 µM and the GI50 (NCI-H460 [45]) was under 0.01 µM. It also gave an inhibition at 0.01 µM (UO-31 [46]) of 100%, an inhibition at 0.01 µM (NCI-H322M [47]) of 53% and an inhibition at 0.01 µM (OVCAR-8 [48]) of 76%. The GI50 (OVCAR-8 [49]) was under 0.01 µM, the inhibition at 0.01 µM (NCI-H460 [50]) was 83% and the inhibition at 0.01 µM (MOLT-4 [51]) was 57%. It also gave a GI50 (MDA-N [52]) of under 0.01 µM, an inhibition at 0.01 µM (HCT-116 [53]) of 83% and a GI50 (IGROV-1 [54]) of under 0.01 µM. It also gave an inhibition at 0.01 µM (NCI/ADR-RES [55]) of 84%, an inhibition at 0.01 µM (IGROV-1 [56]) of 65% and a pIC50 (Dihydrofolate reductase [57]) of 8.64.
